Data set [1] is described as follows: Lipophilicity determination by RP-HPLC (capacity factor log k). It counts as physicochemical. Conditions: isocratic, MeOH 60%/H2O 40%, C18. The protocol:
A HPLC system Agilent 1200 equipped with DAD detector (Agilent, Santa Clara, CA, USA) was used. A chromatographic column Symmetry® C18 5 μm, 4.6 × 250 mm, Part No. WAT054275, (Waters Corp., Milford, MA, USA) was used. The HPLC separation process was monitored and evaluated by EZChrom Elite software ver. 3.3.2 (Agilent). Isocratic elution by a mixture of MeOH p.a. (60%) and H2O-HPLC Mili-Q grade (40%) as a mobile phase was used. The total flow of the column was 1.0 mL/min, injection 20 μL, column temperature 40 °C and sample temperature 10 °C. The detection wavelength 210 nm was chosen. The KI methanolic solution was used for the dead time (tD) determination. Retention times (tR) were measured in minutes. The capacity factors k were calculated according to formula k = (tR − tD)/tD, where tR is the retention time of the solute, whereas tD denotes the dead time obtained using an unretained analyte. Log k, calculated from the capacity factor k, is used as the lipophilicity index converted to log P scale.

For data set [2], the system named is Staphylococcus aureus ATCC 29213. In words: In vitro antibacterial susceptibility testing (broth dilution MIC). Type of data set: cell-based. Conditions: ATCC29213; Staphylococcus aureus ATCC 29213, 24 h, 37 °C. As to the method: (§1) The synthesized compounds were evaluated for in vitro antibacterial activity against representatives of multidrug-resistant bacteria, clinical isolates of methicillin-resistant Staphylococcus aureus (MRSA) 63718, SA 630 and SA 3202 that were obtained from the National Institute of Public Health, Prague, Czech Republic. Staphylococcus aureus ATCC 29213 was used as a reference and quality control strain. Ampicillin (Sigma-Aldrich) was used as the standard. Prior to testing, each strain was passaged onto nutrient agar (Oxoid, Hampshire, UK) with 5% of bovine blood, and bacterial inocula were prepared by suspending a small portion of bacterial colony in sterile phosphate buffered saline (pH 7.2–7.3). The cell density was adjusted to 0.5 McFarland units using a densitometer (Densi-La-Meter, LIAP, Riga, Latvia). The final inoculum was made by 1:20 dilution of the suspension with the Mueller-Hinton broth (MH broth). […] The final concentrations of the evaluated compounds ranging from 256 μg/mL to 0.008 μg/mL. The broth dilution micro-method modified according to NCCLS guidelines in MH broth was used to determine the minimum inhibitory concentration (MIC). Drug-free controls, sterility controls and controls consisted of MH broth and DMSO alone were included. The determination of results was performed visually after 24 h of static incubation in the darkness at 37 °C in an aerobic atmosphere. The MICs were defined as the lowest concentration of the compound at which no visible bacterial growth was observed.

Data set [3] has as its system methicillin-resistant Staphylococcus aureus (MRSA) 63718. The description is as above. The conditions noted are these: clinical isolate MRSA 63718, 24 h, 37 °C. It counts as cell-based. As to the method: as §1
For data set [4], the system named is methicillin-resistant Staphylococcus aureus SA 3202. The data set is described as above. Type of data set: cell-based. Conditions: MRSA, clinical isolate SA 3202, 24 h, 37 °C, read-out: MIC MRSA 3202. As to the method: as §1
Data set [5] relates to methicillin-resistant Staphylococcus aureus SA 630. The description is as above. The conditions noted are these: MRSA, clinical isolate SA 630, 24 h, 37 °C. It counts as cell-based. As to the method: as §1
The test system of data set [6] is photosynthetic electron transport (PET) in spinach chloroplasts. In words: Inhibition of photosynthetic electron transport (PET) in spinach chloroplasts. Type of data set: biochemical, Spinacia oleracea L. The conditions noted are these: DCPIP photoreduction. As to the method:
Chloroplasts were prepared from spinach (Spinacia oleracea L.) according to Masarovicova and Kralova. The inhibition of photosynthetic electron transport (PET) in spinach chloroplasts was determined spectrophotometrically (Genesys 6, Thermo Electron Scientific Instruments, Madison, WI, USA), using an artificial electron acceptor 2,6-dichlorophenol-indophenol (DCPIP) according to Kralova et al., and the rate of photosynthetic electron transport was monitored as a photoreduction of DCPIP. The measurements were carried out in phosphate buffer (0.02 mol/L, pH 7.2) containing sucrose (0.4 mol/L), MgCl2 (0.005 mol/L) and NaCl (0.015 mol/L). The chlorophyll content was 30 mg/L in these experiments and the samples were irradiated (~100 W/m^2 with 10 cm distance) with a halogen lamp (250 W) using a 4 cm water filter to prevent warming of the samples (suspension temperature 22 °C). The studied compounds were dissolved in DMSO due to their limited water solubility. […] The inhibitory efficiency of the studied compounds was expressed by IC50 values, i.e., by molar concentration of the compounds causing 50% decrease in the oxygen evolution rate relative to the untreated control.

Data set [7] concerns Mycobacterium marinum CAMP 5644. In words: In vitro antimycobacterial evaluation (broth dilution MIC). It counts as cell-based. Conditions: for MIC: Mycobacterium marinum, CAMP5644, 504 h, M. marinum CAMP 5644, 21 days, 28 °C.
Data set [8] deals with M. kansasii DSM 44162. The data set is described as above. It counts as cell-based. Conditions: Mycobacterium kansasii, DSM44162, 168 h; M. kansasii DSM 44162, 7 days, 37 °C.
Data set [9] deals with M. smegmatis ATCC 700084. The data set is described as above. Conditions: Mycolicibacterium smegmatis, ATCC700084, 72 h; M. smegmatis ATCC 700084, 3 days, 37 °C. It counts as cell-based, Mycobacterium smegmatis.
The test system of data set [10] is Mycobacterium avium subsp. paratuberculosis (CIT03). In words: In vitro antimycobacterial evaluation (alamarBlue MIC). The conditions noted are these: 264 h, M. avium paratuberculosis CIT03, 11 days, 37 °C. It counts as cell-based. As to the method:
A well characterised clinical isolate of Mycobacterium avium subsp. paratuberculosis (CIT03) was grown in Middlebrook broth (MB), supplemented with Oleic-Albumin-Dextrose-Catalase supplement (OADC, Becton, Dickinson & Comp., Franklin Lakes, NJ, USA) and mycobactin J (2 µg/mL). Identification of this isolate was performed using biochemical and molecular protocols. At log phase growth, a culture sample (10 mL) was centrifuged at 15,000 rpm/20 min using a bench top centrifuge (Model CR 4-12, Jouan Inc., Winchester, VA, USA). Following removal of the supernatant, the pellet was washed in fresh Middlebrook 7H9GC broth and re-suspended in fresh supplemented MB (10 mL). The turbidity was adjusted to match McFarland standard No. 1 (3 × 10^8 cfu) with MB broth. A further 1:20 dilution of the culture was then performed in MB broth. The antimicrobial susceptibility of the mycobacterial species was investigated in a 96-well plate format. In these experiments, sterile deionised water (300 µL) was added to all outer-perimeter wells of the plates to minimize evaporation of the medium in the test wells during incubation. Each evaluated compound (100 µL) was incubated with each of the mycobacterial species (100 µL). Dilutions of each compound were prepared in duplicate. For all synthesized compounds, final concentrations ranged from 1,000 µg/mL to 8 µg/mL. All compounds were prepared in DMSO and subsequent dilutions were made in supplemented MB. The plates were sealed with parafilm and incubated at 37 °C, for 11 days in the case of M. avium paratuberculosis. Following incubation, a 10% addition of alamarBlue (AbD Serotec, Kidlington, UK) was mixed into each well and readings at 570 nm and 600 nm were taken, initially for background subtraction and subsequently after 24 h re-incubation. The background subtraction is necessary for strongly coloured compounds, where the colour may interfere with the interpretation of any colour change. For non-interfering compounds, a blue colour in the well was interpreted as an absence of growth and a pink colour was scored as growth. The minimum inhibitory concentrations (MICs) were initially defined as the lowest concentration which prevented a visual colour change from blue to pink.
The MICs were defined as the lowest concentration of the compound at which no visible bacterial growth was observed. The MIC value is routinely and widely used in bacterial assays and is a standard detection limit according to the Clinical and Laboratory Standards Institute (CLSI). Isoniazid (Sigma-Aldrich) was used as reference antimycobacterial drug.

Values after ≈ are worked out from the molar mass of the structure shown. Values joined by “and” are separate entries in the source; they are usually repeats but may differ in a detail not shown here. Identical values can stand only once. Bounds are passed on as bounds.

`CC1(C)S[C@@H]2[C@H](NC(=O)[C@H](N)c3ccccc3)C(=O)N2[C@H]1C(=O)O` [APC, ampicillin, reference compound] had a log k in data set [1] of 0.4337. In addition, the MIC was 5.7 µM (≈ 1.99 µg/mL) in data set [2], over 45.8 µM in [3], over 45.8 µM in data set [4] and over 45.8 µM in data set [5].
For the molecule `COc1ccccc1NC(=O)c1c(O)ccc2ccccc12` [Compound 2a, 2-Hydroxy-N-(2-methoxyphenyl)naphthalene-1-carboxamide], the log k in [1] is on record as 0.5121. Moreover, half-maximal inhibition in data set [6] (IC50) required 477 µM. For the same molecule, the MIC in data set [2], in data set [3], in data set [4], in data set [5], in [7] and in data set [8] was over 873 µM each time. The MIC in data set [9] was over 873 µM; in data set [10], 852 µM (≈ 250 µg/mL).
The molecule `COc1cccc(NC(=O)c2c(O)ccc3ccccc23)c1` [Compound 2b, 2-Hydroxy-N-(3-methoxyphenyl)naphthalene-1-carboxamide] had a log k in data set [1] of 0.6582. Moreover, half-maximal inhibition in data set [6] (IC50) was put at 681 µM. Also, the MIC in data set [4] came out at 218 µM (≈ 63.9 µg/mL); in data set [7], 218 µM (≈ 63.9 µg/mL); in data set [8] it was 109 µM (≈ 32 µg/mL); in data set [9], 218 µM (≈ 63.9 µg/mL); in data set [10] it was 426 µM (≈ 125 µg/mL).
Take `COc1ccc(NC(=O)c2c(O)ccc3ccccc23)cc1` [Compound 2c, 2-Hydroxy-N-(4-methoxyphenyl)naphthalene-1-carboxamide]: in [1], the log k turned out to be 0.6342. The MIC was 109 µM (≈ 32 µg/mL) in data set [7], 218 µM (≈ 63.9 µg/mL) in data set [8] and 852 µM (≈ 250 µg/mL) in data set [10].
As for `Cc1ccccc1NC(=O)c1c(O)ccc2ccccc12` [Compound 3a, 2-Hydroxy-N-(2-methylphenyl)naphthalene-1-carboxamide], the log k in data set [1] is recorded as 0.7962. The IC50 in data set [6] is 586 µM. Further, the MIC was 231 µM (≈ 64.1 µg/mL) in data set [7], 115 µM (≈ 31.9 µg/mL) in data set [8] and 451 µM (≈ 125 µg/mL) in data set [10].
As to `Cc1cccc(NC(=O)c2c(O)ccc3ccccc23)c1` [Compound 3b, 2-Hydroxy-N-(3-methylphenyl)naphthalene-1-carboxamide], in data set [1], the log k came out at 0.4593. In addition, in data set [6], the IC50 worked out at 372 µM. The MIC is 231 µM (≈ 64.1 µg/mL) in data set [2]; 231 µM (≈ 64.1 µg/mL) in [4]; 231 µM (≈ 64.1 µg/mL) in data set [5]; 231 µM (≈ 64.1 µg/mL) in [7]; 115 µM (≈ 31.9 µg/mL) in [8]; 231 µM (≈ 64.1 µg/mL) in data set [9]. The same molecule came in with an MIC in data set [10] of 451 µM (≈ 125 µg/mL).
`Cc1ccc(NC(=O)c2c(O)ccc3ccccc23)cc1` [Compound 3c, 2-Hydroxy-N-(4-methylphenyl)naphthalene-1-carboxamide]: the log k in data set [1] is recorded as 0.3751. In addition, the IC50 in [6] came to 874 µM. Further, the MIC was determined as 231 µM (≈ 64.1 µg/mL) in data set [2], 115 µM (≈ 31.9 µg/mL) in data set [7], 115 µM (≈ 31.9 µg/mL) in data set [8] and 451 µM (≈ 125 µg/mL) in data set [10].
With `O=C(Nc1ccccc1F)c1c(O)ccc2ccccc12` [Compound 4a, N-(2-fluorophenyl)-2-hydroxynaphthalene-1-carboxamide], the log k in data set [1] was 0.5664. Besides, the IC50 in data set [6] stood at 243 µM. Besides, the MIC in [2] came out at 228 µM (≈ 64.1 µg/mL); in [3], 455 µM (≈ 128 µg/mL); in data set [4], 455 µM (≈ 128 µg/mL); in data set [5] it was 455 µM (≈ 128 µg/mL); in data set [7], 228 µM (≈ 64.1 µg/mL); in data set [8] it was 114 µM (≈ 32.1 µg/mL). Further, the MIC in [9] was determined as 228 µM (≈ 64.1 µg/mL); in data set [10], 203 µM (≈ 57.1 µg/mL).
In the case of `O=C(Nc1cccc(F)c1)c1c(O)ccc2ccccc12` [Compound 4b, N-(3-fluorophenyl)-2-hydroxynaphthalene-1-carboxamide], in data set [1], the log k turned out to be 0.5025. This molecule also showed an IC50 in data set [6] of 213 µM. In addition, the MIC was 228 µM (≈ 64.1 µg/mL) in data set [2]; over 910 µM in data set [3]; 228 µM (≈ 64.1 µg/mL) in data set [4]; over 910 µM in data set [5]; over 910 µM in data set [7]; 114 µM (≈ 32.1 µg/mL) in [8]. Also, the MIC was over 910 µM in data set [9] and over 889 µM in [10].
Turning to `O=C(Nc1ccc([N+](=O)[O-])cc1)c1c(O)ccc2ccccc12` [Compound 8c, 2-Hydroxy-N-(4-nitrophenyl)naphthalene-1-carboxamide], in data set [1], the log k amounted to 0.6260. In data set [6], this molecule yielded an IC50 of 37.5 µM. In addition, the MIC in data set [4] is 104 µM (≈ 32.1 µg/mL); in [7] it was about 52 µM (≈ 16 µg/mL); in [8], 415 µM (≈ 128 µg/mL); in [10], 811 µM (≈ 250 µg/mL). The “fold higher activity against M. marinum than isoniazid” value in data set [7] (ratio of MIC to isoniazid) was “about 9 fold”.
In turn, `CN(C)C(=O)Nc1ccc(Cl)c(Cl)c1` [DCMU, 3-(3,4-dichlorophenyl)-1,1-dimethylurea, reference compound] showed a log k in data set [1] of 0.8801. The IC50 in data set [6] was ~1.9 µM and 1.9 µM.
In the case of `NNC(=O)c1ccncc1` [INH, isoniazid, reference compound], the log k in data set [1] is given as 0.0141. In addition, the MIC in data set [7] is 467 µM (≈ 64 µg/mL); in data set [10], over 1820 µM.

For the origin of these results see article PMC6270026, “Antibacterial and Herbicidal Activity of Ring-Substituted 2-Hydroxynaphthalene-1-carboxanilides” (Molecules, 2013).
